{"source": "paper PMC12498411", "about": "“Antidepressant-like Properties of a Selenium-Containing Pyridinium Salt Explored through In Vitro, In Vivo, and In Silico Approaches” (ACS Chemical Neuroscience, 2025)", "key": {"[1]": {"system": "cerebral lipid peroxidation", "assay": "TBARS assay, SNP-induced lipid peroxidation in brain homogenate", "type": "biochemical, mouse", "settings": "for Concentrations effective in reversing SNP-induced oxidative damage (TBARS): tested up to 500 μM", "experimental": "(§1) Brains from mice of both sexes were used for in vitro assays, each performed in duplicate across three independent experiments (n = 3), conducted on different days.\nThe brain tissues were homogenized in a 50 mM Tris-HCl buffer at pH 7.4, using a 1:10 ratio (w/v). The freshly prepared homogenate was then centrifuged at 900g for 10 min, yielding a low-speed supernatant (S1). Lipid peroxidation was evaluated using the TBARS method as previously described. Lipid peroxidation was induced by 0.3 mM SNP. A 100 μL aliquot of S1 was incubated for 1 h at 37 °C in the presence of the compounds 3A, 3B, and 3C at concentrations ranging from 25 to 500 μM, and SNP or water (to control). The color reaction was initiated by adding 500 μL of a 0.8% thiobarbituric acid (TBA) solution, followed by 200 μL of 8.1% sodium dodecyl sulfate (SDS) and 500 μL of acetic acid (pH 3.4). The reaction mixture was incubated at 95 °C for 1 h. The absorbance was measured using a spectrophotometer at a wavelength of 532 nm. Trolox (100 μM), an antioxidant analogous to vitamin E, served as a positive control. The results were reported as nmol TBARS per gram of tissue. A parallel TBARS experiment was also conducted using a standard alkyl aryl selenide (2-((phenylselanyl)-methyl)-pyridine), dissolved in DMSO at the same concentrations tested, ranging from 25 to 500 μM."}, "[2]": {"settings": "cited from earlier work"}, "rodent": {"system": "rodent", "settings": "literature value, cited from earlier work"}, "[3]": {"design": "method as in Prigol and colleagues", "settings": "ref Prigol and colleagues; cited from earlier work"}, "[4]": {"design": "method as in Prigol and colleagues", "settings": "500 mg/kg dissolved in oil, per oral; ref Prigol and colleagues; cited from earlier work"}, "protein carbonylation": {"system": "protein carbonylation", "assay": "Protein carbonylation assay, SNP-induced, brain homogenate", "type": "biochemical, mouse", "experimental": "as §1\nThe evaluation of protein carbonylation was performed according to a previously established protocol, using freshly prepared brain homogenate diluted at a 1:8 ratio in Tris-HCl buffer. Test compounds (10 μL), ranging in concentrations from 25 to 200 μM, were individually introduced into separate test tubes. Trolox (100 μM) served as the standard antioxidant. The diluted brain homogenate (940 μL) was then added to all tubes, followed by SNP (1 mM) as the inducing oxidative agent (50 μL). The tubes were promptly incubated at 37 °C for 2 h. Following incubation, 2 M HCl was added to blank tubes (200 μL), while 10 mM 2,4-dinitrophenyl-hydrazine (DNPH) solution was added to test tubes (200 μL). The mixture was incubated for 1 h in darkness at room temperature, with intermittent stirring every 15 min to facilitate the color reaction. Subsequently, 500 μL of denaturation buffer, 1.5 mL of ethanol, and 1.5 mL of hexane were added to all tubes, which were then vigorously shaken for 40 s. The tubes were then centrifuged at 900g for 15 min, and the supernatant was carefully decanted. The resulting pellet was washed twice with 1 mL of ethanol/ethyl acetate solution (1:1). After allowing the pellet to dry air for 2 min, it was resuspended in 1 mL of denaturation buffer and subjected to spectrophotometric analysis at 370 nm. The findings were quantified as nmol carbonyl per gram of tissue."}, "male Swiss mice [5]": {"system": "male Swiss mice", "assay": "Tail suspension test (TST)", "type": "in vivo, mouse", "experimental": "A behavioral screening was conducted using the three salts to determine their potential antidepressant-like actions (n = 7–9 mice/group).\n(§2) A dosage of 5 mg/kg (intragastric route, i.g., by gavage) was administered to all groups receiving the salts. […] The TST was conducted 30 min following drug administration, with the OFT being performed 4 min prior to the TST.\n(§3) Following the selection of the most promising salt during screening (Compound 3B), an analysis of the compound’s time-response curve was conducted in the mouse TST. For this purpose, the animals were divided into five groups: (I) control (water; i.g.), (II) the group receiving compound 3B 15 min prior to TST, (III) the group receiving compound 3B 30 min before TST, (IV) the group receiving compound 3B 60 min before TST, and (V) the group receiving compound 3B 120 min before TST. The dosage of salt was standardized at 5 mg/kg (i.g). OFT was conducted 4 min prior to the TST.\n(§4) After choosing a suitable preadministration time, the dose–response curve of the compound at this fixed time was analyzed. The animals were categorized into […]: I) a control group (administered water; i.g.) and groups II, III, IV and V) receiving compound 3B at doses of 0.5 mg/kg, 1 mg/kg, 2.5 mg/kg, and 5 mg/kg (i.g.), respectively. […] Thirty minutes postadministration, the animals underwent the TST. Four minutes prior to the TST, they underwent the OFT.\nThis test aims to assess depressive-like behavior and antidepressant-like action of therapies by measuring immobility. […] The test was conducted using a mouse suspension box made of wood, measuring 50 cm × 21 cm × 21 cm, designed to prevent any visual or physical interaction among the animals. A suspension bar was positioned atop the box, and the mouse’s tail was affixed to the bar using adhesive tape. The test duration was 6 min, during which the animal’s latency to the first immobility episode and the total duration of immobility (sec) were assessed."}, "male Swiss mice [6]": {"system": "male Swiss mice", "assay": "Open field test (OFT) before the TST", "type": "in vivo, mouse", "settings": "3B 0.5–5 mg/kg i.g.; fluoxetine 20 mg/kg i.p.", "experimental": "as §2, §3, §4\nThe aim of this behavioral test is to assess the locomotion and exploration behavior of the animals using an open field apparatus measuring 30 cm × 30 cm × 15 cm, constructed from plywood with a floor divided into nine quadrants, facilitating free movement for the animals. During the OFT, the animals were positioned in the center of the apparatus and subjected to a 5 min testing period, following the protocol outlined in literature. The number of quadrant crossings and rearings was recorded and quantified during testing phase."}, "MAO-A": {"molecular_target": "T1, MAO-A (Mus musculus, UniProt Q64133)", "T1 construct": "Mitochondria-enriched brain preparations were obtained in accordance with established methodology outlined in literature; from tissue; host or cells: mouse brain, mitochondria-enriched fraction", "T1 sequence (Q64133 1-526)": "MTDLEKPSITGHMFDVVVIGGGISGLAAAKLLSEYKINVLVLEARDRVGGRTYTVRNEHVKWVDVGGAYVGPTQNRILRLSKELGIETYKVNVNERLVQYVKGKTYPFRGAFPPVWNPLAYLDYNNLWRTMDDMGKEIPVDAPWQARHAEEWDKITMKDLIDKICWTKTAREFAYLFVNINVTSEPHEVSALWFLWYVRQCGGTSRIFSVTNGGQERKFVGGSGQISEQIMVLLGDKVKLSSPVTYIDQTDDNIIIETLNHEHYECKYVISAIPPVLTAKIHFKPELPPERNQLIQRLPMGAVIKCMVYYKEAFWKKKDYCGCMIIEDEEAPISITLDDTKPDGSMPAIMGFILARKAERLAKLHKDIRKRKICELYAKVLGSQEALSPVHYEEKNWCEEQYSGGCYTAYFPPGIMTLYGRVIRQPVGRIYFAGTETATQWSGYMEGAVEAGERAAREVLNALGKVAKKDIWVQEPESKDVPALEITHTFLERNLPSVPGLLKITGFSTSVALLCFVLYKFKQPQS", "assay": "Cerebral MAO-A activity, mitochondria-enriched mouse brain fraction (kynuramine, fluorimetric)", "type": "biochemical", "experimental": "(§5) Mitochondria-enriched brain preparations were obtained in accordance with established methodology outlined in literature. The homogenate was prepared using the mouse brain tissue and a homogenization buffer (Na2PO4/KH2PO4/sucrose) at a ratio of 1:4 (w/v). The homogenate was centrifuged at 900g at 4 °C for 5 min. The resulting supernatant was separated and subjected to centrifugation at 12,500g for 15 min. The resulting pellet was resuspended in the homogenization buffer and subjected to a further round of centrifugation under identical conditions. Finally, the mitochondrial pellet obtained was reconstituted in an assay buffer solution (Na2PO4/KH2PO4/KCl). Protein concentration was estimated using the Bradford method and standardized as 1 mg/mL for the experiments.\n(§6) MAO activity was assessed following the method outlined by Krajl, with some modifications by Matsumoto. Briefly, a 100 μL aliquot of the mitochondria-rich fraction was incubated at 37 °C for 5 min with specific MAO inhibitors: clorgyline (250 nM, a MAO-A inhibitor), or pargyline (250 nM, a MAO-B inhibitor). Then, 10 μL of each compound was introduced at varying concentrations (25–200 μM). Water (10 μL) was used in the control tubes. Afterward, the substrate, 20 μL of kynuramine dihydrobromide, was added to achieve a final concentration of 90 μM for MAO-A and 60 μM for MAO-B. The samples were incubated at 37 °C for 30 min. The reaction was halted by the addition of 300 μL of 10% trichloroacetic acid (TCA). After centrifuging at 16,000g for 15 min, an aliquot of 800 μL of the supernatant was mixed with 1 mL of 1 M sodium hydroxide (NaOH). The samples were measured using a fluorimeter with excitation at 315 nm and emission at 380 nm."}, "MAO-B": {"molecular_target": "T2, MAO-B (Mus musculus, UniProt Q8BW75)", "T2 construct": "Mitochondria-enriched brain preparations were obtained in accordance with established methodology outlined in literature; from tissue; host or cells: mouse brain, mitochondria-enriched fraction", "T2 sequence (Q8BW75 1-520)": "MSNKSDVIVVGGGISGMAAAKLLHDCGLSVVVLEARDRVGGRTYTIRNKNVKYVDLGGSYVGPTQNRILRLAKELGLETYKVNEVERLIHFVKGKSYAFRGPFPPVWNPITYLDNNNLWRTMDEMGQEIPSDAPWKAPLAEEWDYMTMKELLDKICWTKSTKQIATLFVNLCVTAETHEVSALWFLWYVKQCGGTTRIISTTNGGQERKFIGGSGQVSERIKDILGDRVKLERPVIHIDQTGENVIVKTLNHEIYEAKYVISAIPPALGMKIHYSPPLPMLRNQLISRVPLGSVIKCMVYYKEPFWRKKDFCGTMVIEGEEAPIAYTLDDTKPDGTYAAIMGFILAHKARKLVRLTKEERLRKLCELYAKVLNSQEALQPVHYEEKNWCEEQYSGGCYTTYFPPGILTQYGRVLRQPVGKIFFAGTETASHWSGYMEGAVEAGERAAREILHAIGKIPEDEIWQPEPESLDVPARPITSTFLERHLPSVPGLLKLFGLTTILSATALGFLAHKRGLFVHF", "assay": "Cerebral MAO-B activity, mitochondria-enriched mouse brain fraction (kynuramine, fluorimetric)", "type": "biochemical", "experimental": "as §5, §6"}, "female Swiss mice": {"system": "female Swiss mice", "design": "method as in previously conducted by our research group", "settings": "same methodology layout; ref previously conducted by our research group; cited from earlier work"}, "[7]": {"settings": "salts 5 mg/kg i.g., fluoxetine 20 mg/kg i.p., 30 min before test"}}, "note": "Like-named read-outs stand apart in the source and are kept apart here."}
{"smiles": "c1ccc([Se]Cc2ccccn2)cc1", "note": "[2-((phenylselanyl)methyl)pyridine, reference compound]", "values": [{"measurement": "Concentrations effective in reversing SNP-induced oxidative damage (TBARS)", "setting": "[1]; mouse brain homogenate", "result": 500, "unit": "µM"}]}
{"smiles": "c1ccc([Se]c2c(-c3ccccc3)cn3ccccc23)cc1", "note": "[2-phenyl-1-(phenylselanyl)indolizine]", "values": [{"measurement": "Effective dose (previously studied related molecule)", "setting": "[2]", "result": "≥ 10", "unit": "mg/kg"}]}
{"smiles": "CN(C)CC/C=C1\\c2ccccc2CSc2ccccc21", "note": "[dothiepin]", "values": [{"measurement": "Reduction in rodent locomotor activity", "setting": "rodent; 10 mg/kg", "result": 73, "unit": "%"}]}
{"smiles": "c1ccc([Se][Se]c2ccccc2)cc1", "note": "[(PhSe)2, diphenyl diselenide]", "values": [{"measurement": "Solubility in isotonic phosphate buffer", "setting": "[3]", "result": "poor solubility in isotonic phosphate buffer"}, {"measurement": "Selenium levels in plasma", "setting": "[4]", "result": "very low levels of selenium in plasma"}]}
{"smiles": "COc1ccc(C(CN(C)C)C2(O)CCCCC2)cc1", "note": "(stereo not drawn) [venlafaxine]", "values": [{"measurement": "Reduction in rodent locomotor activity", "setting": "rodent; 50 mg/kg", "result": 62, "unit": "%"}]}
{"smiles": "Cc1c(C)c2c(c(C)c1O)CCC(C)(C(=O)O)O2", "note": "(stereo not drawn) [Trolox, reference compound]", "values": [{"measurement": "Effect of positive control on SNP-induced TBARS", "setting": "[1]; 100 μM", "result": "effectively reversed oxidative damage"}, {"measurement": "Effect of positive control on protein carbonylation", "setting": "protein carbonylation; 100 μM", "result": "effective"}]}
{"smiles": "CNCCC(Oc1ccc(C(F)(F)F)cc1)c1ccccc1", "note": "(stereo not drawn) [Fluoxetine, reference compound]", "values": [{"measurement": "TST immobility time, positive control in dose–response experiment", "setting": "male Swiss mice [5]; 20 mg/kg i.p., 30 min", "result": "effectively reduced the immobility time"}, {"measurement": "TST latency time, positive control in dose–response experiment", "setting": "male Swiss mice [5]; 20 mg/kg i.p., 30 min", "result": "as also observed in the fluoxetine group"}, {"measurement": "TST latency time to first immobility episode, screening", "setting": "male Swiss mice [5]; [7]", "result": "significantly increased latency time"}, {"measurement": "TST total immobility time, screening", "setting": "male Swiss mice [5]; [7]", "result": "shorter total immobility times"}, {"measurement": "OFT number of rearings, dose–response experiment", "setting": "male Swiss mice [6]", "result": "decreased rearings"}, {"measurement": "Reduction in rodent locomotor activity", "setting": "rodent; 30 mg/kg", "result": 89, "unit": "%"}]}
{"smiles": "O=C(C[n+]1ccccc1C[Se]c1ccccc1)c1ccc(Cl)cc1.[Br-]", "note": "[Compound 3C, 1-(2-(4-chlorophenyl)-2-oxoethyl)-2-((phenylselanyl)methyl)pyridin-1-ium bromide]", "values": [{"measurement": "IC50", "setting": "MAO-A", "result": 77.6, "unit": "µM"}, {"measurement": "Concentrations with significant inhibition of MAO-A activity", "setting": "MAO-A; tested 25–200 μM, Dunnett vs control", "result": "≥ 50", "unit": "µM"}, {"measurement": "IC50", "setting": "MAO-B", "result": 125, "unit": "µM"}, {"measurement": "IC50", "setting": "[1]; mouse brain homogenate, SNP-induced", "result": 102, "unit": "µM"}, {"measurement": "Concentrations effective in reversing SNP-induced oxidative damage (TBARS)", "setting": "[1]; mouse brain homogenate", "result": "50 to 500", "unit": "µM"}, {"measurement": "IC50", "setting": "protein carbonylation; mouse brain homogenate, SNP-induced, 25–200 μM", "result": 111, "unit": "µM"}, {"measurement": "Signs of toxicity in acute oral toxicity study", "setting": "female Swiss mice", "result": "no signs of toxicity"}]}
